Data from ChEMBL document CHEMBL3632579, “Hybrids from 4-anilinoquinazoline and hydroxamic acid as dual inhibitors of vascular endothelial growth factor receptor-2 and histone deacetylase” (Bioorg Med Chem Lett, 2015).

What was measured:
[1] = molecular target: Vascular endothelial growth factor receptor 2 (Homo sapiens, UniProt P35968); experiment: Inhibition VEGFR2 (unknown origin) for 30 mins by ELISA
Histone deacetylase = experiment: Inhibition of human HDAC in HeLa cell nuclear extract by fluorometric assay using Fluor de Lys substrate; assay type: protein assay
MCF7 = experiment: Antiproliferative activity against human MCF7 cells after 48 hrs by MTT assay; assay type: functional, cell-based; details: MCF7, 48 h
HepG2 = experiment: Antiproliferative activity against human HepG2 cells after 48 hrs by MTT assay; assay type: functional, cell-based; details: HepG2, 48 h
A549 = experiment: Antiproliferative activity against human A549 cells after 48 hrs by MTT assay; assay type: functional, cell-based; details: A549, 48 h
Histone deacetylase 8 = molecular target: T1, Histone deacetylase 8 (Homo sapiens, UniProt Q9BY41); experiment: Inhibition of human recombinant HDAC8 by fluorometric assay using Fluor de Lys substrate
T1 sequence (Q9BY41 whole entry): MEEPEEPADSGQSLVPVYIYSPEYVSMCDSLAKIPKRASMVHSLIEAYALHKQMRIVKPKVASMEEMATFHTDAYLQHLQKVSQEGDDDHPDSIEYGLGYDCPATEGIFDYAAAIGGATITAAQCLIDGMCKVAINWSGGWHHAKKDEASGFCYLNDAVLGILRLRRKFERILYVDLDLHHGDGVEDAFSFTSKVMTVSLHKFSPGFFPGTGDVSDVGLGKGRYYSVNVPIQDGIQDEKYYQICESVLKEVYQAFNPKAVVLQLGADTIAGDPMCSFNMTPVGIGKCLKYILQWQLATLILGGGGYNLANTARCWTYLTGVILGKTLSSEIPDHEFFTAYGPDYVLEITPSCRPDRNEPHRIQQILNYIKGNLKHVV

[2] = molecular target: T2, Protein deacetylase HDAC6 (Homo sapiens, UniProt Q9UBN7); experiment: Inhibition of human recombinant HDAC6 by fluorometric assay using Fluor de Lys substrate
T2 sequence (Q9UBN7 whole entry): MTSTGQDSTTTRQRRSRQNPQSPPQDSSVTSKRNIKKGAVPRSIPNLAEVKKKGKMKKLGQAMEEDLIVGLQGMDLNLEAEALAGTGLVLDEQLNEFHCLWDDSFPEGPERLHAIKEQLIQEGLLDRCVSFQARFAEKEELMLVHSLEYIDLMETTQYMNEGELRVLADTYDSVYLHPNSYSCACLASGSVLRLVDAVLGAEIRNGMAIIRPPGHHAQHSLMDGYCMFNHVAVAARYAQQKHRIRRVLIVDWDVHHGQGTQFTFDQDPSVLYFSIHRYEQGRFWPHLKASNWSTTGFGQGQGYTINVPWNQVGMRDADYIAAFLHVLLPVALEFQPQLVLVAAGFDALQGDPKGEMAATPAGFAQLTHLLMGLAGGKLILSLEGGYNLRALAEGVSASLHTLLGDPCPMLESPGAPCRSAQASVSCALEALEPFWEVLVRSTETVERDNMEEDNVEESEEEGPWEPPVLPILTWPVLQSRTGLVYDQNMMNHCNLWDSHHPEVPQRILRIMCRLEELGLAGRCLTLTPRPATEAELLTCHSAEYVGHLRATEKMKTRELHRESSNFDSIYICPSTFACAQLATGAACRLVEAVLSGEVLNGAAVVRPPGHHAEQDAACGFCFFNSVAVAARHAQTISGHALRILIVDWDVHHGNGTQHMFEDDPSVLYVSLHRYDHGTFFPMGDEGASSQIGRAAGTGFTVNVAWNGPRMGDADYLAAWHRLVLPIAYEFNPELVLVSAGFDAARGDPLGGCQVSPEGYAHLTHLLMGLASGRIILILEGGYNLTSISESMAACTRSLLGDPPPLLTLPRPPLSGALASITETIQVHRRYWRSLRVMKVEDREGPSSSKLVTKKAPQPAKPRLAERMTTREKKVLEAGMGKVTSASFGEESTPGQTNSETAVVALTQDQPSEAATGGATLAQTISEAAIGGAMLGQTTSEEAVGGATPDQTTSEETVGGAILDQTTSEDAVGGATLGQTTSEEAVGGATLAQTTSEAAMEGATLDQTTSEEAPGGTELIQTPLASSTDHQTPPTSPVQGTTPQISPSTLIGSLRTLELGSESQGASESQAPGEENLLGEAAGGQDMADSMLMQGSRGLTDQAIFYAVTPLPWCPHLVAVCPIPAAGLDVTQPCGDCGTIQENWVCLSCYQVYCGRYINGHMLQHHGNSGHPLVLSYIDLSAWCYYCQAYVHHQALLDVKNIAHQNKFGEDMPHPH

Histone deacetylase 2 = Histone deacetylase 2 (Homo sapiens, UniProt Q92769); experiment: Inhibition of human recombinant HDAC2 by fluorometric assay using Fluor de Lys substrate
HCT-116 = experiment: Antiproliferative activity against human HCT116 cells after 48 hrs by MTT assay; assay type: functional, cell-based; details: HCT-116, 48 h
Histone deacetylase 1 = Histone deacetylase 1 (Homo sapiens, UniProt Q13547); experiment: Inhibition of human recombinant HDAC1 by fluorometric assay using Fluor de Lys substrate
Chain of Histone deacetylase 1 (Q13547 whole entry): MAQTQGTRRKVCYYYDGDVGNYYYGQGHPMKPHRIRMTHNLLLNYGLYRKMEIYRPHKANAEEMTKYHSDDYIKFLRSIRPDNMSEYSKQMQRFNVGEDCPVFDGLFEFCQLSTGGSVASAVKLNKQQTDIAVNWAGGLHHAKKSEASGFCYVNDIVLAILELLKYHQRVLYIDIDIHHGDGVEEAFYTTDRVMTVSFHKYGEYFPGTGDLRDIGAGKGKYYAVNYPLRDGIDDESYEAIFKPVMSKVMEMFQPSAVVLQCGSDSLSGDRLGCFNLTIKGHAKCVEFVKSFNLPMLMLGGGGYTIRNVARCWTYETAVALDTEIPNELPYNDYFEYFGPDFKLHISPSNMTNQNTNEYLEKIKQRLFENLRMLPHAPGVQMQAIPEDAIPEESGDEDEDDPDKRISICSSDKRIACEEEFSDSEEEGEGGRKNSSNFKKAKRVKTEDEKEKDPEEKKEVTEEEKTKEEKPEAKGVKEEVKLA

Chain of Vascular endothelial growth factor receptor 2 (P35968 whole entry): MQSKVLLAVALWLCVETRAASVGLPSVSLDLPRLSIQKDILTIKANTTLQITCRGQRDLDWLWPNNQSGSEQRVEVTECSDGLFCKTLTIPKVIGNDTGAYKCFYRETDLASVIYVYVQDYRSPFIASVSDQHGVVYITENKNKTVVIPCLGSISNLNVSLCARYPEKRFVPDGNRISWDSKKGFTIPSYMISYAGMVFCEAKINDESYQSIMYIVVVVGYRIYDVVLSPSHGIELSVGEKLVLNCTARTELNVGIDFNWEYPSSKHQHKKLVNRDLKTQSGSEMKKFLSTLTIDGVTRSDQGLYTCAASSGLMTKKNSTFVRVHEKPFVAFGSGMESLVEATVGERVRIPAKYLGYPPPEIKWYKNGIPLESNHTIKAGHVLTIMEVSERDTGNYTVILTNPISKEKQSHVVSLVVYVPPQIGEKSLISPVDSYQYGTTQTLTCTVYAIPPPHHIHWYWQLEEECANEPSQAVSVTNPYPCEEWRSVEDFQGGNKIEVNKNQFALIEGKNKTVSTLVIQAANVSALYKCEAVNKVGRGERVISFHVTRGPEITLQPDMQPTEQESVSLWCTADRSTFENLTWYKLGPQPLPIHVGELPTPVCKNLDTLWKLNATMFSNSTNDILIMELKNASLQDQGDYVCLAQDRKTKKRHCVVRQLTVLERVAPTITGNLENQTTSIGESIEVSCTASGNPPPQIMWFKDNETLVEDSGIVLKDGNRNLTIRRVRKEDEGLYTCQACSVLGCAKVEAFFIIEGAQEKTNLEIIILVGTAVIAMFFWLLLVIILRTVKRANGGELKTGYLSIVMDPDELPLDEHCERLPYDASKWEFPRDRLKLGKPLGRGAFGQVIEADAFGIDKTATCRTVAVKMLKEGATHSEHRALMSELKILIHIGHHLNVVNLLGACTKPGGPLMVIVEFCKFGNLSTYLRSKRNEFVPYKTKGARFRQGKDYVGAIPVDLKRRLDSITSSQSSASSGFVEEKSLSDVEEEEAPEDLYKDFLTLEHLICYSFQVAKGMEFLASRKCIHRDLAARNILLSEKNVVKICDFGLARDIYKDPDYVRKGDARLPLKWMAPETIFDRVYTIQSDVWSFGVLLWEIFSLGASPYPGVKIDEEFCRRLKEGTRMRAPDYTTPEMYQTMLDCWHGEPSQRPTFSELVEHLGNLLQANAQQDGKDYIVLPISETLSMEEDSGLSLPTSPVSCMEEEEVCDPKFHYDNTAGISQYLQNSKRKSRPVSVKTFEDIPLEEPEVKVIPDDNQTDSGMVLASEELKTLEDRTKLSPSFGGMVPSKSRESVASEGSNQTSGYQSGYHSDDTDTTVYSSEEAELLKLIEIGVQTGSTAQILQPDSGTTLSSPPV
Chain of Histone deacetylase 2 (Q92769 whole entry): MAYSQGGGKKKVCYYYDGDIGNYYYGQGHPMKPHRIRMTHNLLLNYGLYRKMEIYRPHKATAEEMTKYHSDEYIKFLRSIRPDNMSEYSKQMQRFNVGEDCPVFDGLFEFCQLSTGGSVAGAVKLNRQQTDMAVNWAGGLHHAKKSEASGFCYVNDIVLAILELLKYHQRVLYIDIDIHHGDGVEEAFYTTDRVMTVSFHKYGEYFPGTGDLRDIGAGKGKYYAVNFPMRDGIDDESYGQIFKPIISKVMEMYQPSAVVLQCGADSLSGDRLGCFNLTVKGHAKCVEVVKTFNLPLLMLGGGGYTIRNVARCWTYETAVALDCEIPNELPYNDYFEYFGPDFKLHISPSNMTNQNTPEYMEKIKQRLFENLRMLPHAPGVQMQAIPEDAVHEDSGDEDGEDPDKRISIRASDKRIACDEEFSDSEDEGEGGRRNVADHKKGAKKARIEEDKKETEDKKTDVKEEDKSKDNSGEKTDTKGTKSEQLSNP

Structure (SMILES)	IC50 [1] [nM]	IC50 (Histone deacetylase) [nM]	IC50 (MCF7) [nM]	also measured
COc1cc2ncnc(Nc3cccc(Cl)c3)c2cc1OCCC(=O)NO	476	645	> 100000	–
COc1cc2ncnc(Nc3cccc(Cl)c3)c2cc1OCCCC(=O)NO	352	121	65200	–
COc1cc2ncnc(Nc3cccc(Cl)c3)c2cc1OCCCCC(=O)NO	613	17	8600	–
COc1cc2ncnc(Nc3cccc(Cl)c3)c2cc1OCCCCCC(=O)NO	501	5.4	3200	–
COc1cc2ncnc(Nc3cccc(Br)c3)c2cc1OCCC(=O)NO	625	531	> 100000	–
COc1cc2ncnc(Nc3cccc(Br)c3)c2cc1OCCCC(=O)NO	434	97	68400	–
COc1cc2ncnc(Nc3cccc(Br)c3)c2cc1OCCCCC(=O)NO	415	15	8500	–
COc1cc2ncnc(Nc3cccc(Br)c3)c2cc1OCCCCCC(=O)NO	462	4.5	2800	–
COc1cc2ncnc(Nc3ccc(Cl)cc3Cl)c2cc1OCCC(=O)NO	370	215	95000	–
COc1cc2ncnc(Nc3ccc(Cl)cc3Cl)c2cc1OCCCC(=O)NO	138	86	56800	–
COc1cc2ncnc(Nc3ccc(Cl)cc3Cl)c2cc1OCCCCC(=O)NO	115	14	6400	–
COc1cc2ncnc(Nc3ccc(Cl)cc3Cl)c2cc1OCCCCCC(=O)NO	84	2.8	1200	IC50 (HepG2): 2700 nM; IC50 (A549): 5400 nM; IC50 (Histone deacetylase 8): 5.2 nM; IC50 [2]: 25.5 nM; IC50 (Histone deacetylase 2): 6.8 nM; IC50 (HCT-116): 1800 nM; IC50 (Histone deacetylase 1): 3.5 nM
COc1cc2ncnc(Nc3cc(Cl)ccc3Cl)c2cc1OCCC(=O)NO	1260	348	> 100000	–
COc1cc2ncnc(Nc3cc(Cl)ccc3Cl)c2cc1OCCCC(=O)NO	2140	57	44500	–
COc1cc2ncnc(Nc3cc(Cl)ccc3Cl)c2cc1OCCCCC(=O)NO	5200	21	13700	–
COc1cc2ncnc(Nc3cc(Cl)ccc3Cl)c2cc1OCCCCCC(=O)NO	2450	8.4	4000	–
COc1cc2/c(=N/c3ccc(Br)cc3F)nc[nH]c2cc1OCC1CCN(C)CC1 [VANDETANIB]	–	> 10000	18500	–
O=C(CCCCCCC(=O)Nc1ccccc1)NO [VORINOSTAT]	> 10000	–	–	–
